Laboratory results published in patent US20060270591A1, “Androgen receptor coregulators” (priority 2002, published 2006).

Experiments:
[1] = system: AR; test: AR transactivation dual-luciferase assay with supervillin (Example 6); type: cell-based, human; settings: COS-1 cells; 10 nM DHT; MMTV-Luc
Method: In AR transactivation activity assays, transfections were performed using SuperFect (Qiagen, Chatsworth, Calif.) following protocols described in manual provided by Qiagen. Briefly, cells were plated on 35 mm dishes and after 24 h were transfected using the SuperFect kit. The total DNA amount was adjusted to 2 μg with pSG5 or pEGFP vectors. The medium was changed to DMEM with 10% CD-FBS 2 h after transfection. After 24 h, the DMEM with 10% CD-FBS was changed again, and the cells were treated with various steroids. Cells were harvested after 24 h for dual-luciferase assay as described in protocol provided by Promega. At least three independent experiments were carried out in each case.
Target sequence in this assay (P10275 with tags, fused parts or gaps DEL79-80/DUP473-473): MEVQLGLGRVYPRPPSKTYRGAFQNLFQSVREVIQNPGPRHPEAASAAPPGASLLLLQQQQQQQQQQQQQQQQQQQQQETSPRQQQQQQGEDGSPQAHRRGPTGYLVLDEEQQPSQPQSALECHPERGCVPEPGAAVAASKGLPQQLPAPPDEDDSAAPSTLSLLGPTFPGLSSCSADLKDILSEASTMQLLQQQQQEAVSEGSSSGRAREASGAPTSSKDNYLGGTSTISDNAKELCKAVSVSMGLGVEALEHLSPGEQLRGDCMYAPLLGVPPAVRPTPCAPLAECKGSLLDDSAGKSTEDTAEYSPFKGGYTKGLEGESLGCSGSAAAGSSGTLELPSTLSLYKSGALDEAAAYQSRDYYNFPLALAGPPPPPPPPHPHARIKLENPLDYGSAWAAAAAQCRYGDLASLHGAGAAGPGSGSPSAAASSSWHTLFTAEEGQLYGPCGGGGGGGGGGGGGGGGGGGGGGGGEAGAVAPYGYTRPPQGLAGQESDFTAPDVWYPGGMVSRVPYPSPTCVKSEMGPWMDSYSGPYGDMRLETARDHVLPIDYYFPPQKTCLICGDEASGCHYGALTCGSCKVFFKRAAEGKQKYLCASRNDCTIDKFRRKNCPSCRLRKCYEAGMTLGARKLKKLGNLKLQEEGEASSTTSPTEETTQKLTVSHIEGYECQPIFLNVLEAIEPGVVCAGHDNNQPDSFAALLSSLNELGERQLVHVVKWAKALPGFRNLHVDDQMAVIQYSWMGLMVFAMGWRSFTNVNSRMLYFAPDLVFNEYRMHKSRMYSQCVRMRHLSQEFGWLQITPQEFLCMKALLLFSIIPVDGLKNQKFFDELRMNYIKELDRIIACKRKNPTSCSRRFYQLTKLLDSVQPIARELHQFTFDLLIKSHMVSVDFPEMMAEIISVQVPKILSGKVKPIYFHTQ

[2] = system: AR; test: AR transactivation assay, MMTV-CAT reporter, transient transfection (Example 1); type: cell-based, human; settings: PC3 cells; TGF-β 5 ng/ml
Method: Human prostate cancer DU145 or PC3 cells, or human lung carcinoma cells NCI H1299 were grown in Dulbecco's minimal essential medium (DMEM) containing penicillin (25 U/ml), streptomycin (25˜g/ml), and 5% fetal calf serum (FCS). One hour before transfection, the medium was changed to DMEM with 5% charcoal-stripped FCS. […] A β-galactosidase expression plasmid, pCMV-β-gal, was used as an internal control for transfection efficiency.
The medium was changed 24 hr posttransfection and the cells treated with either steroid hormones or hydroxyflutamide, and cultured for an additional 24 hr. Cells were harvested and assayed for CAT activity after the cell lysates were normalized by using β-galactosidaseas an internal control. Chloramphenicol acetyltransferase (CA) activity was visualized by PhosphorImager (Molecular Dynamics) and quantitated by ImageQuant software (Molecular Dynamics).
Target sequence in this assay (P10275 whole entry, the tested form may be a part): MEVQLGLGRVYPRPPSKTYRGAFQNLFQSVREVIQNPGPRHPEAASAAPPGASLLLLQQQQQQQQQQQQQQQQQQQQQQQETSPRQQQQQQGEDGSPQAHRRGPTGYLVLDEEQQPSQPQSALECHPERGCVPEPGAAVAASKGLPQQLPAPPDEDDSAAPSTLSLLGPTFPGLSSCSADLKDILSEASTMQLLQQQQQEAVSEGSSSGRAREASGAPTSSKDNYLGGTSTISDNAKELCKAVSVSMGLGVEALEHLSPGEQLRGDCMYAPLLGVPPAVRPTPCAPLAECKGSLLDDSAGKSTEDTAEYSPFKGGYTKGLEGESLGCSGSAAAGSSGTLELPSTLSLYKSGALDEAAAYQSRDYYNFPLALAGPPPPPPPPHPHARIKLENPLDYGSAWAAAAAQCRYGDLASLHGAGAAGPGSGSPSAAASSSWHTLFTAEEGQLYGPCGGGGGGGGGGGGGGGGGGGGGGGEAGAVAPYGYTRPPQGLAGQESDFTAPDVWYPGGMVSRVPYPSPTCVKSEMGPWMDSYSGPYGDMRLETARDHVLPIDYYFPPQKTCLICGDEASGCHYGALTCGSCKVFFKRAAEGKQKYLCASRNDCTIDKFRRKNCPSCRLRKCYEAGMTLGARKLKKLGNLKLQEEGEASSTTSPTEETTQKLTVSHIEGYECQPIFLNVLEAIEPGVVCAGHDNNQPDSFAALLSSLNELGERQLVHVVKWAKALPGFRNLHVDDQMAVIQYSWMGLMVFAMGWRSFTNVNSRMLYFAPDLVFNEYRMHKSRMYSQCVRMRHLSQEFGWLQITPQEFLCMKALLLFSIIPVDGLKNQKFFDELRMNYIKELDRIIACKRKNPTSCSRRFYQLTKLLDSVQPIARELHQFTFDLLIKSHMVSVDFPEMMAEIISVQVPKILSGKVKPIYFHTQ

[3] = system: ARA55 mRNA; test: Northern blot of ARA55 mRNA in PC3 cells; type: cell-based, human; settings: 5 ng/ml
Description: 360. The total RNA (25˜g) was fractionated on a 1% formaldehyde-MOPS agarose gel, transferred onto a Hybond-N nylon membrane (Amersham) and prehybridized. A probe corresponding to the 900 bp C-terminus of ARA55 or an ARA54-specific sequence was 32P-labeled in vitro using Random Primed DNA Labeling Kit (Boehringer-Mannheim) according to the manufacture's protocol and hybridized overnight. After washing, the blot was exposed and quantified by Molecular Dynamics PhosphorImager. β-actin was used to monitor the amount of total RNA in each lane.

[4] = system: p27^KIP1; test: Western blot of p27KIP1 in PC-3(AR2) cells; type: cell-based, human; settings: 10 nM DHT
Method: 41. […] (A) C2C12, COS-1, DU145 and PC-3 cell lines were co-transfected with 30 ng pSG5-AR, 0.5 μg MMTV-Luc, 1 ng pRL-SV40, various amounts of pSG5-bSV as indicated, and adjusted to total amount of 2 μg DNA with pSG5. The assay method was the same as FIG. 2. After measuring the luciferase activity, values relative to lane 1 were calculated. Results are the mean±S.D. of three independent experiments. (B) PC-3 was co-transfected with 30 ng pSG5-AR, 1.5 μg pSG5-bSV, 1 ng pRL-SV40, and 0.5 μg reporter gene as indicated by using SuperFect. […] (C) PC-3(AR2) cell line was transfected with EGFP or EGFP-bSV expressing vector using SuperFect. […] Proteins extracted from cells were loaded on 15% SDS-PAGE and analyzed by western blotting. The intensity of each p27 band was quantified and normalized with control protein which is a non-specific band pick up by the antibody in the same blot. The relative intensities to lane 1 were calculated.
478. Protein samples extracted from the cell were separated on 15% SDS-PAGE and transferred to nitrocellulose membranes. Membranes were incubated 1 h with 5% non-fat milk in TBST at room temperature, followed by the antibodies against p27^(KIP1) (Santa Cruz), followed by AP conjugated goat-antimouse antibody. Blots were developed using the AP developing reagent from Bio-Rad. Band intensity was quantitated by Collage® image analysis software (Fotodyne Inc.).

[5] = system: LNCaP cell; settings: 10 nM DHT; cited from earlier work
[6] = system: AR; test: AR reporter gene assay with gelsolin (Example 5); type: cell-based, human; settings: for effect on gelsolin enhanced AR activity: PC-3 cells, co-transfected flag-AR peptides
Description: 468. A C-terminal fragment of gelsolin (aa 281-731) was isolated from pACT2 encoding gelsolin, and inserted into pSG5-Gal4 DNA-binding domain (DBD) (constructed by Dr. R. Nakao). AR fragment (aa 36-918) was inserted into pCMX-VP16 (a gift from Dr. D. Chen). For gelsolin expression vector, a full-length cDNA fragment of gelsolin from LKCG, a gift from Dr. D. Kwiatkowski (Northwestern University, Evanston, Ill.), was inserted into pSG5. Dr. M. L. Lu (Harvard Medical School, Boston, Mass.) provided the p (ARE) 4-luciferase (LUC) plasmid. Dr. A. Mizokami (University of Kanazawa, Kanazawa, Japan) provided the pGL3-PSA6.0LUC plasmid. The expression plasmids of AR peptides were constructed by inserting the PCR amplified cDNA fragment of AR DBD into pFlag-CMV (Sigma) and the fragments of AR LBD into pCDNA-flag plasmid. Transfection protocol and reporter gene assay were described in previous report (Ting et al. Proc Natl Acad Sci USA 99, 661-666 (2002)).
Target sequence in this assay (P10275 with tags, fused parts or gaps DEL79-80/DUP473-473): as the sequence (P10275 with tags, fused parts or gaps DEL79-80/DUP473-473) above

[7] = biological target: T1, AR N-terminus and AR C-terminus (Homo sapiens, UniProt P10275); test: Mammalian two-hybrid assay of AR N-C interaction in PC-3 cells; type: cell-based; settings: DHT
T1 construct: AR DBD plus LBD (GST-AR-DL); expressed in transfected cells; host or cells: PC-3 cells (human prostate cancer line)
T1 sequence (P10275 555-920 limits assumed): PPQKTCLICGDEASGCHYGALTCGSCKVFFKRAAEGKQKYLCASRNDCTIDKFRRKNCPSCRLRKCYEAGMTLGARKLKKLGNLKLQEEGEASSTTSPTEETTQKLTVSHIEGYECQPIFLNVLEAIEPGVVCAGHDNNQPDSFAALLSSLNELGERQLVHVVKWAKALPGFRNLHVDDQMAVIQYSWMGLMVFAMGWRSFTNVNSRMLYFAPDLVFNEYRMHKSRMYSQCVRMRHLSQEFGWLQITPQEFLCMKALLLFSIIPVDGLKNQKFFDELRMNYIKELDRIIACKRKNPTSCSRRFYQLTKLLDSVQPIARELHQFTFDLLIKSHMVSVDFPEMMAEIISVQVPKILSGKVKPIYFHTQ
T1 sequence (P10275 1-559 partner limits assumed): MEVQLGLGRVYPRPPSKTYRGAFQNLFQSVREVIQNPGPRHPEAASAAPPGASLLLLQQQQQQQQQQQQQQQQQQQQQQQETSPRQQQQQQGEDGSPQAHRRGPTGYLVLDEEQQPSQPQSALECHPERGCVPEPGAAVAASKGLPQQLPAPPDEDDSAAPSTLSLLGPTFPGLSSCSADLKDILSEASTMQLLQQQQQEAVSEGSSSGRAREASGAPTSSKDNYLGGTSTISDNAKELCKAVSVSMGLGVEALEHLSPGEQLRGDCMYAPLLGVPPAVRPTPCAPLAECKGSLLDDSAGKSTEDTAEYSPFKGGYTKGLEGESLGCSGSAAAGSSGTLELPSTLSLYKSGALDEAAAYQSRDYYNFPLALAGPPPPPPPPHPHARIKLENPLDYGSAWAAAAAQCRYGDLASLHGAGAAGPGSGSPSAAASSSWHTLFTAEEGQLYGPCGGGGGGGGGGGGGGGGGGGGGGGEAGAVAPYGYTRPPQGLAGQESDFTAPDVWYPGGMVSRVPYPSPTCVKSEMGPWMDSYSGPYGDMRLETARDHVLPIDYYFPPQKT
Method: 44. […] PC-3 cells were transfected with 30 ng plasmids expressing Gal4(DBD)-AR-DL, VP16 or VP16-ARN combined with 1.5 μg pSG5, pSG5-bSV, -ARA55, or -SRC-1α as indicated. The reporter plasmid pG5-Luc (0.5 μg) and control plasmid pRL-Luc (1 ng) were transfected to every sample. The assay was carried out as described in FIG. 29C.
474. Mouse myoblast cell line (C2C12), human prostate cancer cell lines (PC-3 and DU145), and monkey kidney fibroblast cell line (COS-1) were maintained in Dulbecco's minimum essential medium (DMEM) containing penicillin (25 units/ml), streptomycin ([…]), and 10% fetal bovine serum (FBS). In mammalian two-hybrid assay, transfections were performed using the calcium phosphate precipitation method as described previously (15). Briefly, 1.5-3×10^5 cells were plated on 35-mm dishes for 24 h, and the medium was changed to DMEM containing 10% charcol-dextran stripped FBS (CD-FBS) 2 h before transfection. Cells were transfected with 0.5 μg plasmids expressing Gal4(DBD) and VP-16 fusion proteins as indicated. Gal4 response element controlled Firefly luciferase expression plasmid, pG5-Luc, was used as reporter gene. A Renilla luciferase expression plasmid pRL-SV40 was used as an internal control for transfection efficiency. The total amount of DNA was adjusted to 5 μg with pCMX-VP16 vectors. […]

[8] = system: ARA70 and AR; settings: LNCaP cells; cited from earlier work

## bSV(831-1281): peptide containing a.a. 831-1281 of bSV, conjugated with EGFP
[1]
  AR transactivation with EGFP-bSV construct: 248 fold

## TGF-β [reference compound]
[2]
  increase of AR transcription activity: 70%
[3]
  induction of ARA55 mRNA: 2 fold

## C[C@]12CCC(=O)C[C@@H]1CC[C@@H]1[C@@H]2CC[C@]2(C)[C@@H](O)CC[C@@H]12 [DHT, 5α-dihydrotestosterone, reference compound]
[4]
  p27^(KIP1) protein expression: induced p27^(KIP1) protein expression
[5]
  LNCaP cell apoptosis: promotes LNCaP cell apoptosis

## D1: AR peptide D1 (aa 551-600) within AR DBD (DYYFPPQKTCLICGDEASGCHYGALTCGSCKVFFKRAAEGKQKYLCASRN; UniProt P10275 551-600, looked up, fragment)
[6]
  effect on gelsolin enhanced AR activity: suppressed gelsolin enhanced AR activity

## gelsolin: multifunction actin-binding protein, AR coregulator
[6]; 100 nM HF, normal 10% FCS medium
  inhibition of AR activity by HF with added gelsolin: 40%
[6]; DU145 cells, 10 nM DHT
  enhancement of AR transcription activity: 2-3 fold
[6]; DU145 cells, absence of DHT
  effect on AR transcription activity: no significant effect

## SRC-1: p160 steroid receptor coactivator-1
[7]
  effect on AR N-C interaction: further enhance

## bSV(1010-1792): domain within SV (a.a. 1010-1792), conjugated with EGFP
[1]
  effect of EGFP-bSV construct on AR transactivation: only a marginal effect

## Oc1ccc(C=Cc2cc(O)cc(O)c2)cc1 [resveratrol]
[8]
  expression of ARA70 and AR transactivation: repress the expression of ARA70 and AR transactivation

## HI-2: AR peptide H1-2 (aa 655-695) within AR LBD (TTQKLTVSHIEGYECQPIFLNVLEAIEPGVVCAGHDNNQPD; left off: small tags and cut ends)
[6]
  effect on gelsolin enhanced AR activity: suppressed gelsolin enhanced AR activity
